In series [1] the test system is Sodium channel. The series can be described thus: Inhibitory effect of veratrizine-induced sodium channel activity (synaptosome membrane potential, Rhodamine 6G). The conditions noted are these: compound 0.1 μM, rat brain synaptozomes, veratridine-induced depolarization. The class given is biochemical, Wistar rats. The procedure:
Inhibitory Effect of Veratrizine-induced Sodium Channel Activity
The membrane potential of the synaptozomes prepared from the brain membrane of Wistar rats (male, 10 to 12 weeks old) was measured by the method of Aiuchi et al. (t. Aiuchi et al: Biochimi. Biophys. Acta. 771, 228 (1984)) using a membrane potential sensitive fluorescent dye Rhodamine 6G to evaluate the effects of suppression of the compound on the veratrizine-inducing depolarization response.

In series [2] the test system is T-type Ca^2+ channel. The series can be described thus: T-type calcium channel inhibitory effect (whole-cell patch clamp, hippocampal CA1 pyramidal cells). The conditions noted are these: read-out: T-type Ca^2+ channel inhibitory effect IC50; suppression of peak current after one minute of application; rat hippocampal CA1 pyramidal cells. (Patch clamp records ionic current or voltage across a cell membrane.)
Protocol: T-Type Calcium Channel Inhibitory Effect
The hippocampal CA1 pyramidal cells were isolated from Wistar rats (female, 1 week old) according to the method reported by Takahashi et al. [K. Takahashi et al.; J. Pharmacol. Exp. Ther., 256, 169 (1991)] and the T-type calcium current under conditions of a fixed membrane potential was measured using the whole-cell configration of the patch clamp technique. The effects of the compounds were evaluated from the rate of suppression of the peak current after one minute of application using the concentration clamp method.

For series [3], the system named is DBA/2N type mice. The series can be described thus: Audiogenic seizure suppressing effect. The class given is in vivo. The note with it: compound 10 mg/kg, i.p., audio stimulus after 20 minutes, suppression of average seizure score; for inhibition in vivo at 10 mg/kg: Mus musculus, ip, 20 min, read-out: Antiseizure effect (suppression rate %). How it is done:
Audiogenic Seizure Suppressing Effect
The audiogenic seizure suppressing effect of the compounds was evaluated by the method of Sarro et al. [G. B. De Sarro et al., Br. J. Pharmacol., 93, 247 (1988)]. That is, the compound dissolved in 10% 2-hydroxypropyl-β-cyclodextrin was administered intraperitoneally to DBA/2N type mice (male, 3 weeks old). After 20 minutes, a supersonic washer was used to apply audio stimulus of at least 90 dB for one minute. The wild running (WR), clonic seizures (clonus), tonic seizures (tonus), and respiratory arrest (RA) were observed.

Series [4] can be described thus: Acute toxicity after intravenous injection. The note with it: mouse, in vivo, ddY mice (male, 6 weeks old), death rate up to 24 hours, read-out: 50% lethal dosage LD50 of acute toxicity. The source says:
The compound according to the present invention is low in toxicity.

Where a name gives a salt, the structure may show the parent alone.

For orientation: melting point means the temperature of the solid-liquid transition. For `OC1(c2ccc(Oc3ccc(F)cc3)cc2)CCN(C/C=C/c2ccccc2)CC1` (as salt: fumarate), the melting point lay in the range of 148 to 150 °C.

As a reminder, the IC50 is the concentration at which inhibition is half-maximal. Regarding `OC1(c2ccc(Oc3ccccc3)cc2)CCN(C/C=C/c2ccccc2)CC1` [Compound 34, (E)-4-(4-phenoxy)phenyl-1-(3-phenyl-2-propenyl)-4-piperidinol], in series [1], the “Anti-veratridine effect (inhibiting rate %)” value turned out to be 29.9%. The IC50 in series [2] was 1700 nM. In series [3], the inhibition in vivo at 10 mg/kg came to 80%.

Regarding `O[C@H](COc1ccccc1)CN1CCC(O)(c2ccc(-c3ccccc3)c(F)c2)CC1` [Compound 42, (S)-4-(3-fluoro-4-phenyl)phenyl-1-(2-hydroxy-3-phenoxy)propyl-4-piperidinol], the “Anti-veratridine effect (inhibiting rate %)” value in series [1] came out at 21%. Moreover, the IC50 in series [2] amounted to 550 nM. Further, the inhibition in vivo at 10 mg/kg in series [3] came to 72%.

By LD50 is commonly meant the dose expected to kill half of the subjects tested. With `OC1(c2ccc(-c3ccccc3)c(F)c2)CCN(C/C=C/c2ccccc2)CC1` [Compound 17, (E)-4-(3-fluoro-4-phenyl)phenyl-1-(3-phenyl-2-propenyl)-4-piperidinol], in series [4], the LD50 at 24 h turned out to be 32 mg/kg. Besides, in series [1], the “Anti-veratridine effect (inhibiting rate %)” value came out at 26.8%. Further, in series [2], the IC50 is 1900 nM. In addition, in series [3], the inhibition in vivo at 10 mg/kg amounted to 88%.

On to `O[C@@H](COc1ccccc1)CN1CCC(O)(c2ccc(-c3ccccc3)c(F)c2)CC1` [Compound 43, (R)-4-(3-fluoro-4-phenyl)phenyl-1-(2-hydroxy-3-phenoxy)propyl-4-piperidinol], for which, in series [1], the “Anti-veratridine effect (inhibiting rate %)” value turned out to be 21.2%. Further, the concentration for half-maximal inhibition (IC50) in series [2] came to 1400 nM. Moreover, in series [3], the inhibition in vivo at 10 mg/kg was determined as 90%.

As to `O[C@H](COc1ccccc1)CN1CCC(O)(c2ccc(Oc3ccc(F)cc3)cc2)CC1` (as salt: fumarate), the melting point fell in the range of 48 to 50 °C.

Turning to `OC(COc1ccccc1)CN1CCC(O)(c2ccc(Cc3ccc(F)cc3)cc2)CC1` (stereo not drawn) [Compound 39, 4-[4-(4-fluorophenyl)methylphenyl]-1-(2-hydroxy-3-phenoxy)propyl-4-piperidinol], the “Anti-veratridine effect (inhibiting rate %)” value in series [1] (0.1 µM) is on record as 18.7%. Besides, the IC50 in series [2] stood at 1300 nM. The inhibition in vivo at 10 mg/kg in series [3] came out at 90%.

In the case of `O=C(CN1CCC(O)(c2ccc(-c3ccccc3)c(F)c2)CC1)c1ccccc1` [Compound 20, 4-(3-fluoro-4-phenyl)phenyl-1-(2-phenyl-2-oxoethyl)-4-piperidinol], the “Anti-veratridine effect (inhibiting rate %)” value in series [1] is listed as 20.2%. Besides, in series [2], the IC50 is 3000 nM. In addition, the inhibition in vivo at 10 mg/kg in series [3] came out at 91.3%.

The molecule `O=C(CN1CCC(O)(c2ccc(Oc3ccc(F)cc3)cc2)CC1)c1ccccc1` (as salt: fumarate) displayed a melting point of 50 to 52 °C.

`O[C@H](COc1ccccc1)CN1CCC(O)(c2ccc(Oc3ccccc3)cc2)CC1` [Compound 45, (S)-4-(4-phenoxy)phenyl-1-(2-hydroxy-3-phenoxy)propyl-4-piperidinol]: in series [1] (0.1 µM), the “Anti-veratridine effect (inhibiting rate %)” value is listed as 19.8%. Besides, in series [3] (10 mg/kg), the “Antiseizure effect (suppression rate %)” value came out at 82%.

(Values after patent publication US6706734B2, “Arylpiperidinol and arylpiperidine derivatives and pharmaceuticals containing the same” (Daiichi Suntory Pharma Co., Ltd., priority 1996, dated 2004).)
